# Laboratory results reported in ChEMBL document CHEMBL1201862, “PubChem BioAssay data set” (2004).
#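 All cell lines were grown in 96-well plates and treated with compound for 48 hours. Abbreviation: GI50, concentration required for 50% inhibition of growth.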 Activity calls are given as the source filed them. Cut-off read from the data, not from the text of the source: active = GI50 up to about 1.1 µM and inactive = higher.
# Key:
# Assay in all cases: NCI-60 cell line screen, 48 h
# COLO 205 = system: COLO 205
# CCRF-CEM = system: CCRF-CEM
# M14 = system: M14
# NCI-H226 = system: NCI-H226
# OVCAR-4 = system: OVCAR-4
# LXFL 529 = system: LXFL 529
# UACC-257 = system: UACC-257
# KM12 = system: KM12
# SK-MEL-2 = system: SK-MEL-2
# CAKI-1 = system: CAKI-1
# HT-29 = system: HT-29
# HOP-62 = system: HOP-62
# NCI-H522 = system: NCI-H522
# TK-10 = system: TK-10
# HCT-15 = system: HCT-15
# OVCAR-8 = system: OVCAR-8
# ACHN = system: ACHN
# HCT-116 = system: HCT-116
# SR = system: SR
# Malme-3M = system: Malme-3M
# RXF 393 = system: RXF 393
# HOP-18 = system: HOP-18
# SW-620 = system: SW-620
# U-251 = system: U-251
# RPMI-8226 = system: RPMI-8226
# UACC-62 = system: UACC-62
# SNB-75 = system: SNB-75
# DLD-1 = system: DLD-1
# HOP-92 = system: HOP-92
# SF-539 = system: SF-539
# K562 = system: K562
# MOLT-4 = system: MOLT-4
# DMS-273 = system: DMS-273
# DMS-114 = system: DMS-114
# HL-60 = system: HL-60
# UO-31 = system: UO-31
# SF-268 = system: SF-268
# OVCAR-5 = system: OVCAR-5
# SF-295 = system: SF-295
# NCI-H23 = system: NCI-H23
# SN12C = system: SN12C
# M19-MEL = system: M19-MEL
# SK-MEL-28 = system: SK-MEL-28
# SK-OV-3 = system: SK-OV-3
# NCI-H460 = system: NCI-H460
# A549 = system: A549
# IGROV-1 = system: IGROV-1
# LOX IMVI = system: LOX IMVI
# 786-0 = system: 786-0
# SK-MEL-5 = system: SK-MEL-5
# OVCAR-3 = system: OVCAR-3
# SNB-78 = system: SNB-78
# SNB-19 = system: SNB-19
# A498 = system: A498
# EKVX = system: EKVX
# HCC 2998 = system: HCC 2998
# KM-20L2 = system: KM-20L2
smiles,measurement,setting,value
N#CC(NNC(=O)Cc1ccccc1)c1ccc(O)cc1 (stereo unspecified),GI50,COLO 205,> 100 µM (inactive)
same,GI50,CCRF-CEM,> 100 µM (inactive)
same,GI50,M14,> 100 µM (inactive)
same,GI50,NCI-H226,> 100 µM (inactive)
same,GI50,OVCAR-4,> 100 µM (inactive)
same,GI50,LXFL 529,> 100 µM (inactive)
same,GI50,UACC-257,> 100 µM (inactive)
same,GI50,KM12,> 100 µM (inactive)
same,GI50,SK-MEL-2,> 100 µM (inactive)
same,GI50,CAKI-1,> 100 µM (inactive)
same,GI50,HT-29,> 100 µM (inactive)
same,GI50,HOP-62,> 100 µM (inactive)
same,GI50,NCI-H522,> 100 µM (inactive)
same,GI50,TK-10,> 100 µM (inactive)
same,GI50,HCT-15,> 100 µM
same,GI50,OVCAR-8,> 100 µM (inactive)
same,GI50,ACHN,> 100 µM (inactive)
same,GI50,HCT-116,> 100 µM (inactive)
same,GI50,SR,> 100 µM (inactive)
same,GI50,Malme-3M,> 100 µM (inactive)
same,GI50,RXF 393,> 100 µM (inactive)
same,GI50,HOP-18,> 100 µM (inactive)
same,GI50,SW-620,> 100 µM (inactive)
same,GI50,U-251,> 100 µM (inactive)
same,GI50,RPMI-8226,> 100 µM (inactive)
same,GI50,UACC-62,> 100 µM (inactive)
same,GI50,SNB-75,28.2 µM (inactive)
same,GI50,DLD-1,> 100 µM (inactive)
same,GI50,HOP-92,85.9 µM (inactive)
same,GI50,SF-539,> 100 µM (inactive)
same,GI50,K562,> 100 µM (inactive)
same,GI50,MOLT-4,> 100 µM (inactive)
same,GI50,DMS-273,> 100 µM (inactive)
same,GI50,DMS-114,> 100 µM (inactive)
same,GI50,HL-60,> 100 µM (inactive)
same,GI50,UO-31,> 100 µM (inactive)
same,GI50,SF-268,> 100 µM (inactive)
same,GI50,OVCAR-5,> 100 µM (inactive)
same,GI50,SF-295,> 100 µM (inactive)
same,GI50,NCI-H23,> 100 µM (inactive)
same,GI50,SN12C,> 100 µM (inactive)
same,GI50,M19-MEL,> 100 µM (inactive)
same,GI50,SK-MEL-28,> 100 µM (inactive)
same,GI50,SK-OV-3,> 100 µM (inactive)
same,GI50,NCI-H460,> 100 µM (inactive)
same,GI50,A549,> 100 µM (inactive)
same,GI50,IGROV-1,> 100 µM (inactive)
same,GI50,LOX IMVI,> 100 µM (inactive)
same,GI50,786-0,> 100 µM (inactive)
same,GI50,SK-MEL-5,> 100 µM (inactive)
CCC(=O)N/N=C(\C=C\c1cccc(O)c1)c1sc(Nc2ccc(C)cc2[N+](=O)[O-])nc1C,GI50,COLO 205,> 100 µM (inactive)
same,GI50,CCRF-CEM,99.1 µM (inactive)
same,GI50,M14,> 100 µM (inactive)
same,GI50,NCI-H226,> 100 µM (inactive)
same,GI50,OVCAR-4,49 µM (inactive)
same,GI50,LXFL 529,> 100 µM (inactive)
same,GI50,UACC-257,> 100 µM (inactive)
same,GI50,KM12,> 100 µM (inactive)
same,GI50,SK-MEL-2,> 100 µM (inactive)
same,GI50,OVCAR-3,71.1 µM (inactive)
same,GI50,CAKI-1,> 100 µM (inactive)
same,GI50,HT-29,18.6 µM (inactive)
same,GI50,HOP-62,> 100 µM (inactive)
same,GI50,NCI-H522,45.8 µM (inactive)
same,GI50,TK-10,> 100 µM (inactive)
same,GI50,HCT-15,81.8 µM
same,GI50,OVCAR-8,71.3 µM (inactive)
same,GI50,SNB-78,> 100 µM (inactive)
same,GI50,ACHN,> 100 µM (inactive)
same,GI50,HCT-116,> 100 µM (inactive)
same,GI50,SR,73.8 µM (inactive)
same,GI50,Malme-3M,> 100 µM (inactive)
same,GI50,RXF 393,10.8 µM (inactive)
same,GI50,HOP-18,> 100 µM (inactive)
same,GI50,SW-620,> 100 µM (inactive)
same,GI50,U-251,> 100 µM (inactive)
same,GI50,RPMI-8226,> 100 µM (inactive)
same,GI50,UACC-62,> 100 µM (inactive)
same,GI50,SNB-75,14.9 µM (inactive)
same,GI50,DLD-1,43.6 µM (inactive)
same,GI50,HOP-92,13.7 µM (inactive)
same,GI50,SNB-19,> 100 µM (inactive)
same,GI50,SF-539,32.7 µM (inactive)
same,GI50,K562,> 100 µM (inactive)
same,GI50,MOLT-4,> 100 µM (inactive)
same,GI50,DMS-273,> 100 µM (inactive)
same,GI50,DMS-114,> 100 µM (inactive)
same,GI50,A498,> 100 µM (inactive)
same,GI50,HL-60,43.4 µM (inactive)
same,GI50,UO-31,> 100 µM (inactive)
same,GI50,SF-268,> 100 µM (inactive)
same,GI50,OVCAR-5,> 100 µM (inactive)
same,GI50,SF-295,48.4 µM (inactive)
same,GI50,NCI-H23,2.22 µM (inactive)
same,GI50,SN12C,> 100 µM (inactive)
same,GI50,M19-MEL,> 100 µM (inactive)
same,GI50,SK-MEL-28,> 100 µM (inactive)
same,GI50,SK-OV-3,> 100 µM (inactive)
same,GI50,NCI-H460,> 100 µM (inactive)
same,GI50,A549,> 100 µM (inactive)
same,GI50,EKVX,> 100 µM (inactive)
same,GI50,IGROV-1,> 100 µM (inactive)
same,GI50,HCC 2998,> 100 µM (inactive)
same,GI50,LOX IMVI,58.6 µM (inactive)
same,GI50,KM-20L2,> 100 µM (inactive)
same,GI50,786-0,> 100 µM (inactive)
same,GI50,SK-MEL-5,> 100 µM (inactive)
COc1ccc(-c2nnc(-c3nsc4ccccc34)o2)cc1,GI50,COLO 205,> 100 µM (inactive)
same,GI50,M14,80.9 µM (inactive)
same,GI50,OVCAR-4,65.9 µM (inactive)
same,GI50,LXFL 529,54.5 µM (inactive)
same,GI50,UACC-257,> 100 µM (inactive)
same,GI50,KM12,49 µM (inactive)
same,GI50,SK-MEL-2,> 100 µM (inactive)
same,GI50,OVCAR-3,28.3 µM (inactive)
same,GI50,HT-29,67.6 µM (inactive)
same,GI50,HOP-62,44.3 µM (inactive)
same,GI50,TK-10,> 100 µM (inactive)
same,GI50,HCT-15,31.6 µM
same,GI50,OVCAR-8,93.5 µM (inactive)
same,GI50,SNB-78,> 100 µM (inactive)
same,GI50,ACHN,33 µM (inactive)
same,GI50,HCT-116,38.4 µM (inactive)
same,GI50,SR,31.9 µM (inactive)
same,GI50,RXF 393,32.5 µM (inactive)
same,GI50,HOP-18,0.571 µM (active)
same,GI50,SW-620,> 100 µM (inactive)
same,GI50,U-251,79.6 µM (inactive)
same,GI50,RPMI-8226,19.3 µM (inactive)
same,GI50,UACC-62,> 100 µM (inactive)
same,GI50,SNB-75,17.5 µM (inactive)
same,GI50,HOP-92,43.2 µM (inactive)
same,GI50,SNB-19,> 100 µM (inactive)
same,GI50,SF-539,31.2 µM (inactive)
same,GI50,DMS-273,71.4 µM (inactive)
same,GI50,DMS-114,58.1 µM (inactive)
same,GI50,UO-31,25.2 µM (inactive)
same,GI50,SF-268,65.6 µM (inactive)
same,GI50,OVCAR-5,> 100 µM (inactive)
same,GI50,NCI-H23,> 100 µM (inactive)
same,GI50,SN12C,59.4 µM (inactive)
same,GI50,M19-MEL,> 100 µM (inactive)
same,GI50,SK-MEL-28,> 100 µM (inactive)
same,GI50,NCI-H460,45.4 µM (inactive)
same,GI50,A549,78.5 µM (inactive)
same,GI50,EKVX,38.8 µM (inactive)
same,GI50,IGROV-1,58.6 µM (inactive)
same,GI50,HCC 2998,77.4 µM (inactive)
same,GI50,LOX IMVI,47.9 µM (inactive)
same,GI50,KM-20L2,> 100 µM (inactive)
same,GI50,SK-MEL-5,61.9 µM (inactive)
